# According to patent US9730944B2, “Antiviral activity of novel bicyclic heterocycles” (priority 2010, dated 2017):
# Like-named read-outs stand apart in the source and are kept apart here.
# Legend:
# poliovirus (PV type 1) = experiment: microbe, parasite or virus in culture; format: cell-based; conditions: Enterovirus C, read-out: PV-1 EC50
# poliovirus (PV type 2) = experiment: microbe, parasite or virus in culture; format: cell-based; conditions: Enterovirus C, read-out: PV-2 EC50
# poliovirus (PV type 3) = experiment: microbe, parasite or virus in culture; format: cell-based; conditions: Enterovirus C, read-out: PV-3 EC50
# in vitro [1] = conditions: African green monkey, PV CC50
# in vitro [2] = conditions: human, PV CC50
# HIV-1 strain IIIB = experiment: Inhibition of replication of HIV-1 (IIIB strain) in MT-4 cells, MTT assay; format: cell-based; conditions: Human immunodeficiency virus 1, IIIB, MT4, 120 h; MT-4 cells, MTT assay, five days after infection, 50% protection from cytopathic effect; read-out: EC50 (μM) HIV-1 (IIIB)
# HIV-2 strain (ROD) = experiment: Inhibition of replication of HIV-2 (ROD strain) in MT-4 cells, MTT assay; format: cell-based; conditions: Human immunodeficiency virus 2, MT4, 120 h; MT-4 cells, MTT assay, five days after infection, 50% protection from cytopathic effect; read-out: EC50 (μM) HIV-2 (ROD)
# in vitro [3] = conditions: human
# [4] = test system: genotype 1a H-77 replicon; experiment: HCV-1a replicon potency in RLuc-1 cells, bioluminescence; format: cell-based; conditions: for HCV-1a Replicon Selectivity Index: CC50/EC50, genotype 1a replicon; for EC50: Hepatitis C virus, 72 h, read-out: HCV-1a Replicon EC50 (μM)
# [5] = Cytotoxicity in HCV-1a replicon cells, Promega CellTiter-Glo cell viability assay
SMILES,EC50 (poliovirus (PV type 1); HeLa) [µg/mL],EC50 (poliovirus (PV type 1); Vero) [µg/mL],EC50 (poliovirus (PV type 2); HeLa) [µg/mL],EC50 (poliovirus (PV type 2); Vero) [µg/mL],EC50 (poliovirus (PV type 3); HeLa) [µg/mL],EC50 (poliovirus (PV type 3); Vero) [µg/mL],CC50 (in vitro [1]) [µg/mL],CC50 (in vitro [2]) [µg/mL],EC50 (HIV-1 strain IIIB) [µM],EC50 (HIV-2 strain (ROD)) [µM],CC50 (in vitro [3]) [µM],HCV-1a Replicon Selectivity Index [4],EC50 [4] [µM],CC50 at 72 h [5] [µM]
C[C@@]1(O)[C@H](O)[C@@H](CO)O[C@H]1n1ccc(N)nc1=O [2′-C-methylcytidine],3.74,3.58,7.27,4.6,11.4,15.3,> 150,> 50,–,–,–,–,–,–
CC(C)S(=O)(=O)n1c(N)nc2ccc(/C(=N/O)c3ccccc3)cc21 [Enviroxime],0.13,0.11,0.041,0.04,0.12,1.03,> 150,21.2,–,–,–,–,–,–
"Nc1nc(N2CCN(C(=O)COc3ccc(Cl)cc3)CC2)c2nc(Cc3ccc(F)cc3)sc2n1 [Example 46, 1-(4-(5-amino-2-(4-fluorobenzyl)thiazolo[5,4-d]pyrimidin-7-yl)piperazin-1-yl)-2-(4-chlorophenoxy)ethanone]",0.11,0.12,0.039,0.14,0.11,> 50,133,> 50,0.67,1.15,164,–,–,–
"Cc1nc(N2CCN(C(=O)COc3ccc(Cl)cc3)CC2)c2nc(-c3ccc(F)cc3)sc2n1 [Example 47, 2-(4-chlorophenoxy)-1-(4-(2-(4-fluorophenyl)-5-methylthiazolo[5,4-d]pyrimidin-7-yl)piperazin-1-yl)ethanone]",> 50,0.64,≥ 50,0.35,> 50,> 50,> 150,> 50,> 50,> 50,> 50,–,–,–
"Nc1nc(N2CCN(C(=O)COc3ccc(Cl)cc3)CC2)c2nc(CCOc3ccc(F)cc3)sc2n1 [Example 48, 1-(4-(5-amino-2-(2-(4-fluorophenoxy)ethyl)thiazolo[5,4-d]pyrimidin-7-yl)piperazin-1-yl)-2-(4-chlorophenoxy)ethanone]",0.35,0.11,0.36,0.082,0.97,0.36,> 150,49.4,0.63,5.12,11.7,–,–,–
"Nc1nc(N2CCN(C(=O)COc3ccc(Cl)cc3)CC2)c2nc(C3CC3)oc2n1 [Example 185, 5-amino-2-cyclopropyl-7-[4-(4-chlorophenoxyacetyl)piperazin-1-yl]-oxazolo[5,4-d]pyrimidine]",0.4,2.17,≥ 50,5.48,> 50,> 50,97.7,> 50,–,–,–,–,–,–
"CCCCCc1nc2c(N3CCN(C(=O)COc4ccc(Cl)cc4)CC3)nc(N)nc2o1 [Example 188, 5-amino-7-[4-(4-chlorophenoxyacetyl)piperazin-1-yl]-2-pentyloxazolo[5,4-d]pyrimidine]",0.38,0.14,0.36,0.11,0.48,0.32,103,> 50,–,–,–,–,–,–
"CC(C)CN1CCN(c2nc(N)nc3oc(-c4ccc(F)cc4)nc23)CC1 [Example 190, 5-amino-2-(4-fluorophenyl)-7-(4-isobutylpiperazin-1-yl)-oxazolo[5,4-d]pyrimidine]",1.15,1.08,1.17,1.02,1.13,2.79,130,32.3,–,–,–,–,–,–
"CC(=O)N1CCN(c2nc(N)nc3oc(-c4ccc(F)cc4)nc23)CC1 [Example 191, 5-amino-2-(4-fluorophenyl)-7-(4-acetylpiperazin-1-yl)-oxazolo[5,4-d]pyrimidine]",28.6,27.5,≥ 50,21.6,> 50,> 50,112,> 50,–,–,–,–,–,–
"COCCN1CCN(c2nc(N)nc3oc(-c4ccc(F)cc4)nc23)CC1 [Example 192, 5-amino-2-(4-fluorophenyl)-7-[4-(2-methoxyethyl)-piperazin-1-yl]-oxazolo[5,4-d]pyrimidine]",> 50,> 50,> 50,≥ 50,> 50,> 50,100,> 50,–,–,–,–,–,–
"COc1ccc(OCC(=O)N2CCN(c3ncnc4sc(CCc5ccc(F)cc5)nc34)CC2)cc1 [Example 302, 1-(4-(2-(4-fluorophenethyl)thiazolo[5,4-d]pyrimidin-7-yl)piperazin-1-yl)-2-(4-methoxyphenoxy)ethanone]",< 0.023,< 0.023,< 0.023,< 0.023,< 0.023,0.085,50,> 50,–,–,–,–,–,–
"O=C(COc1ccc(Cl)cc1)N1CCN(c2ncnc3sc(-c4ccc(F)cc4)cc23)CC1 [Example 312, 2-(4-chlorophenoxy)-1-(4-(6-(4-fluorophenyl)thieno[2,3-d]pyrimidin-4-yl)piperazin-1-yl)ethanone]",3.77,1.12,1.28,0.68,> 1.85,2.05,116,> 50,–,–,–,–,–,–
"CCCCc1nc(N2CCN(C(=O)COc3ccc(Cl)cc3)CC2)c2cc(-c3ccc(F)cc3)sc2n1 [Example 313, 1-(4-(2-butyl-6-(4-fluorophenyl)thieno[2,3-d]pyrimidin-4-yl)piperazin-1-yl)-2-(4-chlorophenoxy)ethanone]",> 50,> 50,≥ 50,≥ 50,> 50,> 50,> 150,> 50,–,–,–,–,–,–
"Nc1nc(N2CCN(CC(=O)Nc3cccnc3)CC2)c2nc(-c3ccc(F)cc3)[nH]c2n1 [Example 412, 2-(4-(2-amino-8-(4-fluorophenyl)-9H-purin-6-yl)piperazin-1-yl)-N-(pyridin-3-yl)acetamide]",–,–,–,–,–,–,–,–,–,–,–,>111,0.4,> 44.4
"CN(C(=O)CN1CCN(c2nc(N)nc3[nH]c(-c4ccc(F)cc4)nc23)CC1)c1ccccc1 [Example 413, 2-(4-(2-amino-8-(4-fluorophenyl)-9H-purin-6-yl)piperazin-1-yl)-N-methyl-N-phenylacetamide]",–,–,–,–,–,–,–,–,–,–,–,0.5,> 44.4,20.3
"Nc1nc(N2CCN(c3ccc(Cl)cc3)CC2)c2nc(-c3ccc(F)cc3)[nH]c2n1 [Example 414, 6-(4-(4-chlorophenyl)piperazin-1-yl)-8-(4-fluorophenyl)-9H-purin-2-amine]",–,–,–,–,–,–,–,–,–,–,–,1.2,7.3,8.7
"Nc1nc(N2CCCN(C(=O)COc3ccc(Cl)cc3)CC2)c2nc(-c3ccc(F)cc3)[nH]c2n1 [Example 421, 1-(4-(2-amino-8-(4-fluorophenyl)-9H-purin-6-yl)-1,4-diazepan-1-yl)-2-(4-chlorophenoxy)ethanone]",–,–,–,–,–,–,–,–,–,–,–,1.9,12.7,23.8
"Cc1cccc(NC(=O)N2CCCN(c3nc(N)nc4[nH]c(-c5ccc(F)cc5)nc34)CC2)c1 [Example 422, 4-(2-amino-8-(4-fluorophenyl)-9H-purin-6-yl)-N-m-tolyl-1,4-diazepane-1-carboxamide]",–,–,–,–,–,–,–,–,–,–,–,1.3,26.1,35.1
"CSc1nc2c(N3CCN(C(=O)COc4ccc(Cl)cc4)CC3)nc(N)nc2[nH]1 [Example 424, 1-(4-(2-amino-8-(methylthio)-9H-purin-6-yl)piperazin-1-yl)-2-(4-chlorophenoxy)ethanone]",–,–,–,–,–,–,–,–,–,–,–,>1.3,34.8,> 44.4
"CCCSc1nc2c(N3CCN(C(=O)COc4ccc(Cl)cc4)CC3)nc(N)nc2[nH]1 [Example 425, 1-(4-(2-amino-8-(propylthio)-9H-purin-6-yl)piperazin-1-yl)-2-(4-chlorophenoxy)ethanone]",–,–,–,–,–,–,–,–,–,–,–,19.7,1.2,23.6
"Nc1nc(N2CCN(C(=O)COc3ccc(Cl)cc3)CC2)c2nc(SCCc3ccccc3)[nH]c2n1 [Example 427, 1-(4-(2-amino-8-(phenethylthio)-9H-purin-6-yl)piperazin-1-yl)-2-(4-chlorophenoxy)ethanone]",–,–,–,–,–,–,–,–,–,–,–,1.1,5.2,5.8
"Cn1c(-c2ccc(F)cc2)nc2c(N3CCN(C(=O)COc4ccc(Cl)cc4)CC3)nc(N)nc21 [Example 430, 1-(4-(2-amino-8-(4-fluorophenyl)-9-methyl-9H-purin-6-yl)piperazin-1-yl)-2-(4-chlorophenoxy)ethanone]",–,–,–,–,–,–,–,–,–,–,–,54.0,0.3,15.1
"Nc1nc(N2CCN(C(=O)CCc3ccccc3)CC2)c2nc(-c3ccc(F)cc3)[nH]c2n1 [Example 438, 1-(4-(2-amino-8-(4-fluorophenyl)-9H-purin-6-yl)piperazin-1-yl)-3-phenylpropan-1-one]",–,–,–,–,–,–,–,–,–,–,–,0.6,10.3,6.1
